{
  "source": "patent US20050170393A1",
  "about": "“OATPB transporters expressed in blood brain barrier cells” (Xenoport, Inc., priority 2004, published 2005)",
  "key": {"[1]": {"target": "T1, OATPB transporter (Homo sapiens, UniProt O94956)", "T1 construct": "expressed in transfected cells", "T1 sequence (O94956 1-709)": "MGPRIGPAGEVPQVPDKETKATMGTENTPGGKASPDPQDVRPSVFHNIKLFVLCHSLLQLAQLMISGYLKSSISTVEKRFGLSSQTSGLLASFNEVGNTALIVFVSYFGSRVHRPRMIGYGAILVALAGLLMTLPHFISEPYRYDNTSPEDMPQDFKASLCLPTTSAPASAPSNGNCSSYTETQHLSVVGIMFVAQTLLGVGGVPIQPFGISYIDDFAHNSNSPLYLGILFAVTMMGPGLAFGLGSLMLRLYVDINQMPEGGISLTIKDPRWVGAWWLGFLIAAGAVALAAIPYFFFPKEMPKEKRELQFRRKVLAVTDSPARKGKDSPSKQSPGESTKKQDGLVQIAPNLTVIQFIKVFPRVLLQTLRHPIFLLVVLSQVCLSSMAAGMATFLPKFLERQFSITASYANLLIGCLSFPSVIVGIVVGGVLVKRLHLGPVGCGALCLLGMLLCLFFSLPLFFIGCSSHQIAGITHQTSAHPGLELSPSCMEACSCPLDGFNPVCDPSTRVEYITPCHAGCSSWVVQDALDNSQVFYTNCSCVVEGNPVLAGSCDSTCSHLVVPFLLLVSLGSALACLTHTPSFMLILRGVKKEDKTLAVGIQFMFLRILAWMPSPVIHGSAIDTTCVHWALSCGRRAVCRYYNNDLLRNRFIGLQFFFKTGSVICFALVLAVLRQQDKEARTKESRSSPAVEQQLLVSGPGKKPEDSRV", "assay": "Direct uptake assay in tet-induced and non-induced OATPB-HEK/TREx cells (LC-MS-MS)", "format": "cell-based", "conditions": "125, 250, 500 or 1000 μM, 20 minutes at room temperature, with and without tetracycline (FIG. 7)", "text": "To increase the throughput of OATPB compound screening, a mammalian cell assay was developed using an inducible expression system. OATPB was subcloned into a plasmid that allows for inducible expression by tetracycline (TREx plasmid, Invitrogen Inc. Carlsbad Calif.). The OATPB-HEK plasmid was […] transfected into a HEK cell line engineered for tetracycline-inducible expression (HEK-TREx, Invitrogen) and stable clones were isolated by G418 selection and […] (FACS).\nIn order to measure whether test compounds are actively translocated across the membrane, and to determine the maximal transport rate, a direct uptake method can be used in which transport of a test compound is measured by mass spectroscopy. For direct uptake measurements using mass spectroscopy, OATPB-HEK/TREx cells can be prepared similarly to those used for competition studies (described above). […] The supernatant is analyzed by LC-MS-MS. As a negative control, uptake is measured in cells not treated with tetracycline, or by competition with another substrate such as estrone-3-sulfate or bromosulphophthalein (3 mM).\nThe uptake of PGFα by OATPB-HEK/TREx cells was measured as described in Example 3. […] The supernatant was analyzed by LC-MS-MS. As a negative control, uptake was measured in cells not treated with tetracycline."}, "[2]": {"target": "T2, OATPB (Homo sapiens, UniProt O94956)", "T2 sequence (O94956 1-709)": "T1 sequence (O94956 1-709)", "conditions": "cited from earlier work"}, "[3]": {"target": "T2, OATPB", "assay": "^3H-estrone sulfate uptake into oocytes injected with OATPB cRNA", "format": "cell-based", "design": "expressed in transfected cells; host or cells: Xenopus oocytes injected with OATPB cRNA", "conditions": "oocytes expressing OATPB versus noninjected controls (FIG. 2)"}, "[4]": {"target": "T3, PgP (Homo sapiens, UniProt P08183)", "T3 construct": "expressed in transfected cells; host or cells: MDCK cells", "T3 sequence (P08183 whole entry)": "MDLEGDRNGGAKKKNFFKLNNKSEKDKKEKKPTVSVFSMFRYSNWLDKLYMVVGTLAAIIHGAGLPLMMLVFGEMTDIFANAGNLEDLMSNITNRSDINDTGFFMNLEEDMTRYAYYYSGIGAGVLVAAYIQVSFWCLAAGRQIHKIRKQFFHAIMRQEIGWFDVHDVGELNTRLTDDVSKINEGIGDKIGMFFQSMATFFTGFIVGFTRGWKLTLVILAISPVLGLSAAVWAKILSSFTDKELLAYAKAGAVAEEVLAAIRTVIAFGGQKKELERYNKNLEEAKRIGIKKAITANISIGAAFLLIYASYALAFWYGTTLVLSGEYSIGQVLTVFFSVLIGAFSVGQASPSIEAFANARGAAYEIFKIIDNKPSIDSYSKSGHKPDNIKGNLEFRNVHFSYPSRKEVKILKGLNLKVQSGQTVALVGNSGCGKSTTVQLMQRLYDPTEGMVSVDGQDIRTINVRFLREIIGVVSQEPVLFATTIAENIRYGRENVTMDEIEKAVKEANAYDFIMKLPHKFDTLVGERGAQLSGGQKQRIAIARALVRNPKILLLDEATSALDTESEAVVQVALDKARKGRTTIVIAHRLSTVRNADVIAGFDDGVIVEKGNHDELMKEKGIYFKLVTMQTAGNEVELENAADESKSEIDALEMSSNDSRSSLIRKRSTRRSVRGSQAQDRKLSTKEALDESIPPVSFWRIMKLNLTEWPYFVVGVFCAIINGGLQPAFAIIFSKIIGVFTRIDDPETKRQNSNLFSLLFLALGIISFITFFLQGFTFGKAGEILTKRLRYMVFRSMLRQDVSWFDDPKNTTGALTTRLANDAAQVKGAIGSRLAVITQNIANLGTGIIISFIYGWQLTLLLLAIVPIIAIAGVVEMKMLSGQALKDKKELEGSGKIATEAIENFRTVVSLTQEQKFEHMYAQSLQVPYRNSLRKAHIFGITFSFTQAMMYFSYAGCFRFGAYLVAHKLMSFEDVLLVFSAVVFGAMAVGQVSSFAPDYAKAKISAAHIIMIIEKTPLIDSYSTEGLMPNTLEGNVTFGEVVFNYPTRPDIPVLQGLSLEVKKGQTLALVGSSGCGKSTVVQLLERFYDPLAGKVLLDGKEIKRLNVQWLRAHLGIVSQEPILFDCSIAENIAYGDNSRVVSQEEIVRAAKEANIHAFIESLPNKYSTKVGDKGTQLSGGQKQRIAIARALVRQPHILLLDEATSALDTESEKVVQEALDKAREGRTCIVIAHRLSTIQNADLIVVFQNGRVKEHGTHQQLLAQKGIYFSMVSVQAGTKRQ", "assay": "Cellular transwell monolayer efflux assay in MDCK cells transfected with TREx-PgP", "format": "cell-based", "protocol": "A third type of efflux transporter assay is the cellular transwell monolayer efflux assay. […] The cells form a polarized monolayer. The transwell dishes have apical and basolateral chambers that are separated by the filter membrane on which the polarized monolayer is situated. Assays are performed by placing a test compound in either the apical or basolateral chamber, followed by sampling the opposite chamber after a predetermined period of time such as 60-120 minutes and measuring the amount of the test compound. The test compound can be measured by methods such as radiolabel detection or LC-MS-MS analysis. Assays are performed in the presence and absence of an efflux transporter inhibitor or competitor. Efflux transporter inhibitors or competitors increase apical to basolateral transport and decrease basolateral to apical transport of compounds that are efflux transporter substrates. Apparent permeability (Papp) of test compounds is measured. […] Test compounds that generate ratios between 1.5 and 2.0 require additional testing to determine if they are efflux transporter substrates.\nMDCK cells transfected with the tetracycline-inducible TREx-PgP expression vector were seeded on polycarbonate filter membranes in transwell dishes and grown for 3-5 days, yielding a polarized monolayer with tight junctions between cells. […] The left set of bars depicts apical to basolateral transport, while the right set of bars depicts basolateral to apical transport."}, "[5]": {"conditions": "2.5 nM ^3H-vinblastine, in the presence of 250 μM verapamil versus absence (FIG. 6)"}},
  "data": [
    {"smiles": "CCCCC[C@H](O)/C=C/[C@@H]1[C@@H](C/C=C\\CCCC(=O)O)[C@@H](O)C[C@H]1O", "note": "[PGFα]", "values": [
      {"measurement": "OATPB substrate status", "setting": "[1]", "result": "is a substrate for the OATPB transporter"}
    ]},
    {"smiles": "C[C@]12CC[C@@H]3c4ccc(OS(=O)(=O)O)cc4CC[C@H]3[C@@H]1CCC2=O", "note": "[Estrone-3-sulfate]", "values": [
      {"measurement": "Reported Affinity for OATPB", "setting": "[2]", "result": 0.1, "unit": "mM"},
      {"measurement": "^3H-estrone-3-sulfate uptake", "setting": "[3]", "result": "higher levels of ^3H-estrone-3-sulfate uptake than noninjected controls"}
    ]},
    {"smiles": "CC[C@]1(O)C[C@@H]2CN(CCc3c([nH]c4ccccc34)[C@@](C(=O)OC)(c3cc4c(cc3OC)N(C)[C@H]3[C@@](O)(C(=O)OC)[C@H](OC(C)=O)[C@]5(CC)C=CCN6CC[C@]43[C@@H]65)C2)C1", "note": "[^3H-vinblastine]", "values": [
      {"measurement": "Apical to basolateral transport", "setting": "[4]; [5]", "result": "strongly increased"},
      {"measurement": "Basolateral to apical transport", "setting": "[4]; [5]", "result": "strongly decreased"},
      {"measurement": "PgP substrate status", "setting": "[4]; conclusion from the transwell assay with and without verapamil", "result": "is a substrate of PgP"}
    ]},
    {"smiles": "O=C1OC(c2ccc(O)c(S(=O)(=O)O)c2)(c2ccc(O)c(S(=O)(=O)O)c2)c2c(Br)c(Br)c(Br)c(Br)c21", "note": "[Bromosulfophthalein]", "values": [
      {"measurement": "Reported Affinity for OATPB", "setting": "[2]", "result": 0.04, "unit": "mM"}
    ]}
  ]
}
